# Laboratory results: patent US12344878B2, “Artificial organelles for enzymatic cofactor reduction” (priority 2020, dated 2025)
# Like-named read-outs stand apart in the source and are kept apart here.
# Legend:
# [1] = target: T1, Respiratory Complex I (CMI, NADH:ubiquinone oxidoreductase) (Escherichia coli, UniProt P0AFC7+P0AFD4+P31979+P33599); type: biochemical, E. coli
# T1 construct: made in house; host or cells: E. coli overexpression strain ANN0221
# Protocol: (§1) Complex I NADH:DQ oxidoreductase and proton pumping activity were measured simultaneously using a Flexstation 3 (Molecular Devices, Inc.). NADH:DQ oxidoreductase activity was monitored through NADH oxidation by fluorescence spectroscopy (λexictation=340 nm, λemission=455 nm), while proton gradient generation was determined by quenching of ACMA (λexictation=410 nm, λemission=480 nm). The assay was conducted at 28° C. in the corresponding buffer, 25 μL of proteoliposomes were added to 175 μL assay mixture containing 100 μM DQ, 200 μM NADH, 0.2 μM valinomycin, 2.5 μM ACMA and for decoupling and inhibition assays 5 μM CCCP (carbonyl cyanide 3-chlorophenylhydrazone) and 50 μM Piericidin A, respectively. The sample was incubated for 5 min prior to reaction initiation by addition of NADH. When conducting inhibition assays proteoliposomes were incubated for 5 min with Piericidin A before the addition of DQ.
# [2] = target: T1, Respiratory Complex I (CMI, NADH:ubiquinone oxidoreductase); assay: Complex I proton pumping (ACMA quenching) in CMI proteoliposomes; type: biochemical, E. coli
# Protocol: as §1
# Photosystem II (PSII) = target: T2, Photosystem II (PSII) (Synechocystis sp., UniProt P09192+P16033); assay: Oxygen evolution assay (Clarke-type electrode); type: biochemical, Synechocystis sp. PCC6803
# T2 construct: made in house; host or cells: Synechocystis sp; PCC6803 strain with His-tagged CP47; thylakoid membranes
# Protocol: Oxygen evolution assays were performed using 50 mM MES, pH 6.5, 10 mM NaCl, 5 mM MgCl2, 20 mM CaCl2 using a Clarke-type electrode (Hansatech Instruments, Ltd.). 2 mM ferricyanide and either 300 μM 2,5-dicholor-1,4-benzoquinone (DCBQ) or 50 μM DQ was added as electron acceptor with […] of ChlA of the sample to a final volume of 1.5 mL. The reaction took place at 28° C. and was initiated by red light at 2800 μmol s^−1 m^−2.
# [3] = system: bacteriorhodopsin (bR) and CMI proteoliposomes; type: biochemical, H. salinarum (bR), E. coli (CMI); conditions: 0.2 μM valinomycin compared with 0.1 μM
# Protocol: (§2) Liposome preparation, enzyme reconstitution, NAD^+ photoreduction, and proton pumping assays were performed as described above.
# (§3) The pH-sensitive fluorophore 9-amino-6-chloro-2-methoxyacridine (ACMA) was used to conduct proton pumping assays. The rates of ACMA quenching were measured for CMI bR independently. Because of the non-linear relationship between ACMA quenching and ΔpH [54-55], the rate of ACMA quenching and de-quenching were calculated using the linear region of the ACMA signal, between 40-70% of the baseline.
# [4] = target: (+)CMI-(+)bR proteoliposomes (Escherichia coli, UniProt P0AFC7+P0AFD4+P31979+P33599); type: biochemical, E. coli (CMI), H. salinarum (bR)
# Protocol: (§4) Photoreduction by CMI:PSII proteoliposomes were routinely performed at 28° C. in 5 mM MES, pH 6.5, 50 mM KCl, 5 mM MgCl2 2 mM CaCl2, 25 µL of proteoliposomes were added to 175 μL assay mixture containing 50 μM DQ, 0.2 μM valinomycin, 2.5 μM ACMA; and for decoupling and inhibition assays: 5 μM CCCP and 100 μM DCMU, respectively. The potassium ionophore, valinomycin, was added to collapse the electrical component of the PMF and generate a higher ΔpH. Without being bound by any theory, the reverse electron transfer activity of CMI is believed to be more dependent on the proton component of the […] than the electrical component of the […]. Saturating white light >2200 μmol photons m^−2 s^−1 was provided by a 100 W Mercury lamp. The light was passed through a 2 L water bath. The reaction was monitored using Flexstation 3 (Molecular Devices, Inc.), NADH concentration was monitored by fluorescence spectroscopy (λexictation=340 nm, λemission=455 nm), while the proton gradient generation was determined by the change in ACMA signal (λexictation=410 nm, λemission=480 nm).
# as §2
# In this study, an engineered artificial organelle capable of photoreduction of NAD^+ was created by vectorially integrating bR from H. salinarum and CMI from E. coli into proteoliposomes. The power source for this system is light which activates the proton translocation by bR. As a result, accumulation of H^+ within the lumen creates a proton motive force (PMF). The PMF is requisite to diminish the thermodynamic gap of the standard redox potentials between NADH/NAD^+ and QH2/Q. Reducing the thermodynamic barrier enables CMI to perform reverse electron transfer (RET) from QH2 to NAD^+ [10, 46].
# The experiments were initially conducted to determine whether the (+)CMI-(+)bR proteoliposomes could reduce NAD^+ and find suitable assay conditions.
# [5] = target: T3, bacteriorhodopsin (bR) and CMI proteoliposomes (Escherichia coli, UniProt P0AFC7+P0AFD4+P31979+P33599); type: biochemical, H. salinarum (bR), E. coli (CMI); conditions: 50 μM Piericidin A
# T3 construct: Bacteriorhodopsin from H. salinarum was purified using tangential flow filtration; made in house; host or cells: bR purified from H. salinarum; CMI from E. coli strain ANN0221; co-reconstituted in liposomes
# Protocol: as §2, §3
# CMI:PSII proteoliposomes [6] = system: T4, CMI:PSII proteoliposomes; assay: NAD+ photoreduction assay of CMI:PSII proteoliposomes (NADH fluorescence); type: biochemical, E. coli (CMI), Synechocystis sp. PCC6803 (PSII); conditions: for Max Rate NAD^+ Photoreduction: 4PSII:1CMI proteoliposomes; for Sum NADH: production plus remaining
# T4 construct: made in house; host or cells: CMI from E. coli strain ANN0221; PSII from Synechocystis sp; PCC6803 (His-tagged CP47); co-reconstituted in E. coli lipid liposomes
# Protocol: as §4
# CMI:PSII proteoliposomes [7] = system: T4, CMI:PSII proteoliposomes; assay: Proton gradient (ACMA signal) of CMI:PSII proteoliposomes; type: biochemical, E. coli (CMI), Synechocystis sp. PCC6803 (PSII); conditions: 100 μM DCMU
# Protocol: as §4
# [8] = CMI reconstituted with detergent at 18 mM
# [9] = CMI reconstituted with detergent at 26 mM
# [10] = CMI reconstituted with detergent at 3.8 mM
# [11] = CMI reconstituted with detergent at 7 mM
# [12] = PSII reconstituted with detergent at 7 mM
# [13] = CMI reconstituted with detergent at 1.8 mM
compound,measurement,setting,value
"CCCCCCCCO[C@@H]1O[C@H](CO)[C@@H](O)[C@H](O)[C@H]1O [OG, n-octyl-β-D-glucoside]",NADH:DQ oxidoreductase activity,[1]; [8],5.24 umol min^−1 mg CMI^−1
same,NADH:DQ oxidoreductase activity,[1]; [9],8.95 umol min^−1 mg CMI^−1
same,ACMA Fluorescence decrease,[2]; [8],0.71%
same,ACMA Fluorescence decrease,[2]; [9],−0.16%
same,O2 Evolution (mean ± S.D.),Photosystem II (PSII); PSII reconstituted with detergent at 18 mM,306.95 ± 44.24 umol O2 hr^−1 ug ChIA
same,O2 Evolution (mean ± S.D.),Photosystem II (PSII); PSII reconstituted with detergent at 26 mM,481.01 ± 192.16 umol O2 hr^−1 ug ChIA
"CCCCCCCCCCCCO[C@@H]1O[C@H](CO)[C@@H](O[C@H]2O[C@H](CO)[C@@H](O)[C@H](O)[C@H]2O)[C@H](O)[C@H]1O [DDM, n-dodecyl-β-D-maltopyranoside]",NADH:DQ oxidoreductase activity,[1]; [10],13.43 umol min^−1 mg CMI^−1
same,NADH:DQ oxidoreductase activity,[1]; [11],0.76 umol min^−1 mg CMI^−1
same,ACMA Fluorescence decrease,[2]; [10],1.46%
same,ACMA Fluorescence decrease,[2]; [11],0.32%
same,O2 Evolution (mean ± S.D.),Photosystem II (PSII); PSII reconstituted with detergent at 3.8 mM,565.87 ± 25.19 umol O2 hr^−1 ug ChIA
same,O2 Evolution (mean ± S.D.),Photosystem II (PSII); PSII reconstituted with detergent at 6.8 mM,396.55 ± 69.76 umol O2 hr^−1 ug ChIA
CC(C)[C@@H]1NC(=O)[C@H](C)OC(=O)[C@@H](C(C)C)NC(=O)[C@@H](C(C)C)OC(=O)[C@H](C(C)C)NC(=O)[C@H](C)OC(=O)[C@@H](C(C)C)NC(=O)[C@@H](C(C)C)OC(=O)[C@H](C(C)C)NC(=O)[C@H](C)OC(=O)[C@@H](C(C)C)NC(=O)[C@@H](C(C)C)OC1=O [valinomycin],ACMA quenching,[3],quenched the ACMA more than 0.1 μM
"N#CC(C#N)=NNc1cccc(Cl)c1 [CCCP, carbonyl cyanide 3-chlorophenylhydrazone]",change in ACMA fluorescence of CMI proteoliposomes,[2]; incubation with 5 μM CCCP,minimal change in ACMA fluorescence
same,response of NADH production,[4],negative and significant response
C/C=C(\C)[C@H](O)[C@H](C)/C=C(C)/C=C/C/C(C)=C/Cc1nc(OC)c(OC)c(O)c1C [Piericidin A],inhibition of NADH:DQ oxidoreductase specific activity of CMI proteoliposomes,[1]; 50 μM Piericidin A,> 95%
same,inhibition of NADH oxidation by CMI,"[1]; 50 μM Piericidin A, (+)CMI-(−)bR proteoliposomes (FIG. 13)",> 95%
same,effect on NAD^+ reductase rates,[4]; 50 μM Piericidin A,significantly increased
same,NAD^+ reductase rate relative to samples with no Piericidin A,"[4]; 50 μM Piericidin A, 0.0 mM DTT",~3 times
same,NAD^+ reductase rate relative to samples with no Piericidin A,"[4]; 50 μM Piericidin A, 1.0 mM DTT",~4 times
same,reduction of the rate of NADH produced,"[4]; after 35 minutes, Piericidin A present",95%
same,rate of ACMA signal increase during photoreduction,[5]; 0.0 mM DTT,3.96±0.64 ACMA % min^−1
same,rate of ACMA signal increase during photoreduction,[5]; 1.0 mM DTT,3.15±0.94 ACMA % min^−1
"CN(C)C(=O)Nc1ccc(Cl)c(Cl)c1 [DCMU, 3-(3,4-dicholorophenyl)-1,1-dimethylurea]",inhibition of isolated PSII,Photosystem II (PSII); 100 μM DCMU (FIG. 10),70%
same,average rate of NADH production after removal of light,CMI:PSII proteoliposomes [6]; 100 μM DCMU inhibited sample,−170.65±2.26 nmol min^−1 mg CMI^−1
same,rate of NADH production of inhibited sample relative to non-inhibited sample,"CMI:PSII proteoliposomes [6]; 100 μM DCMU, illumination minus post illumination rates",39.05%±7.64
same,maximum rate of NADH production under illumination,CMI:PSII proteoliposomes [6]; proteoliposomes incubated 5 minutes with 100 μM DCMU,6.44±24.97 nmol min^−1 mg CMI^−1
same,ACMA signal increase relative to non-inhibited sample,CMI:PSII proteoliposomes [7],approximately 60%
NC(=O)C1=CN([C@@H]2O[C@H](COP(=O)(O)OP(=O)(O)OC[C@H]3O[C@@H](n4cnc5c(N)ncnc54)[C@H](O)[C@@H]3O)[C@@H](O)[C@H]2O)C=CC1 [NADH],Max Production of NADH,CMI:PSII proteoliposomes [6]; 100 μM NADH injected,8.04 µM
same,NADH remaining prior to photoreduction,CMI:PSII proteoliposomes [6]; 100 μM NADH injected,2.05 µM
same,Max Rate NAD^+ Photoreduction,CMI:PSII proteoliposomes [6]; 100 μM NADH injected,132.30 nmol min^−1 mg CMI^−1
same,Sum NADH,CMI:PSII proteoliposomes [6]; 100 μM NADH injected,10.08 µM
same,Max Production of NADH,CMI:PSII proteoliposomes [6]; 200 μM NADH injected,9.10 µM
same,NADH remaining prior to photoreduction,CMI:PSII proteoliposomes [6]; 200 μM NADH injected,4.10 µM
same,Max Rate NAD^+ Photoreduction,CMI:PSII proteoliposomes [6]; 200 μM NADH injected,213.32 nmol min^−1 mg CMI^−1
same,Sum NADH,CMI:PSII proteoliposomes [6]; 200 μM NADH injected,13.20 µM
same,Max Production of NADH,CMI:PSII proteoliposomes [6]; 300 μM NADH injected,6.48 µM
same,NADH remaining prior to photoreduction,CMI:PSII proteoliposomes [6]; 300 μM NADH injected,8.19 µM
same,Max Rate NAD^+ Photoreduction,CMI:PSII proteoliposomes [6]; 300 μM NADH injected,178.71 nmol min^−1 mg CMI^−1
same,Sum NADH,CMI:PSII proteoliposomes [6]; 300 μM NADH injected,14.67 µM
same,Max Production of NADH,CMI:PSII proteoliposomes [6]; 400 μM NADH injected,1.53 µM
same,NADH remaining prior to photoreduction,CMI:PSII proteoliposomes [6]; 400 μM NADH injected,13.41 µM
same,Max Rate NAD^+ Photoreduction,CMI:PSII proteoliposomes [6]; 400 μM NADH injected,57.45 nmol min^−1 mg CMI^−1
same,Sum NADH,CMI:PSII proteoliposomes [6]; 400 μM NADH injected,14.94 µM
"C[C@H](CCC(=O)NCCC[N+](C)(C)CCCS(=O)(=O)[O-])[C@H]1CC[C@H]2[C@@H]3[C@H](O)C[C@@H]4C[C@H](O)CC[C@]4(C)[C@H]3C[C@H](O)[C@]12C [CHAPS, 3-[(3-cholamidopropyl)dimethylammonio]-1-propanesulfonate]",ACMA Fluorescence decrease,[2]; CMI reconstituted with detergent at 3.0 mM,0.58%
same,ACMA Fluorescence decrease,[2]; [11],74.54%
same,O2 Evolution (mean ± S.D.),Photosystem II (PSII); PSII reconstituted with detergent at 3.0 mM,178.08 ± 9.91 umol O2 hr^−1 ug ChIA
same,O2 Evolution (mean ± S.D.),Photosystem II (PSII); [12],509.24 ± 256.84 umol O2 hr^−1 ug ChIA
"polyethylene glycol p-(1,1,3,3-tetramethylbutyl)-phenyl ether [Triton X-100 ™]",NADH:DQ oxidoreductase activity,[1]; [13],−0.00 umol min^−1 mg CMI^−1
same,NADH:DQ oxidoreductase activity,[1]; [11],9.05 umol min^−1 mg CMI^−1
same,ACMA Fluorescence decrease,[2]; [13],−2.75%
same,ACMA Fluorescence decrease,[2]; [11],−4.90%
same,O2 Evolution (mean ± S.D.),Photosystem II (PSII); PSII reconstituted with detergent at 1.8 mM,530.72 ± 2.53 umol O2 hr^−1 ug ChIA
same,O2 Evolution (mean ± S.D.),Photosystem II (PSII); [12],218.69 ± 67.01 umol O2 hr^−1 ug ChIA
